Measured values: US9963474B2, “Mitochondria-targeted dicarbonyl sequestering compounds” (MEDICAL RESEARCH COUNCIL, priority 2013, dated 2018)

Assays:
[1] = 25° C., literature [49]; cited from earlier work
[2] = Stability of compounds assessed by RP-HPLC; format: physicochemical; conditions: 37° C., one week, RP-HPLC
Protocol: (§1) RP-HPLC was performed using a Gilson 321 pump with a C18 column (Jupiter 300 Å, Phenomenex) with a Widepore C18 guard column (Phenomenex). Samples (1 ml) were injected through a 0.22 μm PVDF filter (Millex, Millipore). HPLC buffer A [0.1% TFA in water] and HPLC buffer B (90% acetonitrile and 0.1% TFA) were used and a gradient was run at 1 ml/min at room temperature as follows: 0-2 min—5% B; 2-17 min—5-100% B; 17-19 min—100% B; 19-22 min—100-5% B. Peaks were detected by absorbance at 220 nm (UV/Vis 151, Gilson) and by fluorescence (excitation and emission wavelengths of 344 and 433 nm; RF-10AXL, Shimadzu). Partition coefficients between PBS and octan-1-ol were determined as previously described.
The syntheses of MitoG, its predicted quinoxaline products upon reaction with methylglyoxal and glyoxal, and their deuterated versions are summarized in FIG. 2. As expected, the spectrum of MitoG was a summation of those of the phenylenediamine, hexyloxyphenylenediamine (HP), and a simple alkylTPP salt.
The expected products of the reaction of MitoG with methylglyoxal (MQE) and glyoxal (QE) were synthesized and have UV/Vis absorption spectra distinct from that of MitoG (FIG. 3B). Both QE and MQE were fluorescent, while MitoG was not (FIG. 3C). The three compounds were resolved by RP-HPLC (FIG. 3D) although the MQE regioisomers (MQE1, MQE2; FIG. 1B) were not distinguished. Both MQE and QE were stable after one week at 37° C. as assessed by RP-HPLC (data not shown). It was concluded that MitoG is sufficiently stable for biological experiments involving trapping of glyoxal and methylglyoxal within mitochondria in cells and in vivo, and the reaction products MQE and QE were both robustly stable for chemical isolation and subsequent LC-MS/MS analyses.

[3] = Partition coefficients between PBS and octan-1-ol; format: physicochemical; conditions: means ± SE of 3 determinations
Protocol: as §1

SMILES	rate constant for reaction with methylglyoxal, reported value [1] [M⁻¹ s⁻¹]	stability after one week [2]	Partition coefficient [3]	logD ([3]; octan-1-ol/PBS, read-out: Partition coefficient (converted))
Nc1ccccc1N [o-phenylenediamine]	1.7 ± 0.3	–	–	–
Cc1cnc2cc(OCCCCCC[P+](c3ccccc3)(c3ccccc3)c3ccccc3)ccc2n1.O=C([O-])C(F)(F)F [MQE, (6-(6-(2-Methyl-quinoxalinyloxy))hexyl)triphenylphosphonium trifluoroacetate]	–	stable	12.3 ± 0.5	–
O=C([O-])C(F)(F)F.c1ccc([P+](CCCCCCOc2ccc3nccnc3c2)(c2ccccc2)c2ccccc2)cc1 [QE, (6-(6-Quinoxalinyloxy)hexyl)triphenylphosphonium trifluoroacetate]	–	stable	–	1.13
